According to US11207313B2, “Pharmaceutical composition” (Novartis AG, priority 2017, dated 2021):

What was measured:
Format in all cases: physicochemical
[1] = Solubility of Compound A in formulations and precipitation on storage at room temperature
[2] = Precipitation of Compound A under dispersion in pH 6.5 buffer (microscope); settings: room temperature, after at least 6 hours, all developed formulations
Source text: Then, the precipitation of Compound A in each formulation was controlled by microscope under dispersion in pH 6.5 buffer at room temperature.

[3] = Biopharmaceutics classification and water solubility statement
Source text: The design of a pharmaceutical composition, a pharmaceutical dosage form, as well as a commercially viable process to prepare the pharmaceutical composition, for a non-bile FXR agonist, such as 2-[(1R,3R,5S)-3-({5-cyclopropyl-3-[2-(trifluoromethoxy)phenyl]-1,2-oxazol-4-yl}methoxy)-8-azabicyclo[3.2.1]octan-8-yl]-4-fluoro-1,3-benzothiazole-6-carboxylic acid, or a pharmaceutically acceptable salt thereof, is especially challenging. […] For example, due to its very high potency a low dosage is needed, generating unwanted formulation issues such as content uniformity, and additional handling restrictions on a large manufacturing scale. […] Accordingly, a suitable and robust solid pharmaceutical composition overcoming the above problems needs to be developed.

O=C(O)c1cc(F)c2nc(N3C4CCC3CC(OCc3c(-c5ccccc5OC(F)(F)F)noc3C3CC3)C4)sc2c1 [Compound A, 2-[(1R,3R,5S)-3-({5-cyclopropyl-3-[2-(trifluoromethoxy)phenyl]-1,2-oxazol-4-yl}methoxy)-8-azabicyclo[3.2.1]octan-8-yl]-4-fluoro-1,3-benzothiazole-6-carboxylic acid]
Precipitation after storage ([1]; 7 days storage at room temperature, all formulations): no precipitation was observed | Solubility of Compound A in formulations ([1]; all formulations of Tables 1 to 3 combined with Compound A): fully soluble | Precipitation of Compound A under dispersion [2]: No precipitation | Biopharmaceutics classification system class [3]: class IV | Water solubility [3]: low water solubility
